Read-outs that look alike come from different tables or passages of the source.
Tests used:
healthy mice [1] = experiment: Toxicity in healthy mice; assay type: in vivo; details: 1,000-1,500 μmole doses
MXT mammary tumor = assay type: in vivo; details: for effect on body weight: MXT tumor-bearing, CP-treated mice, by day 22; for Total weight / Tumor weight / Body weight: CP 120-mg/kg i.p. x8 daily from day 6, CC compounds s.c. with each CP (1 and 3: 4.5-mg/kg, 26: 2.0-mg/kg); for Body weight: total minus tumor weight
Description: This experiment was designed to determine whether in a tumor model CC compounds could prevent cyclophosphamide-induced loss of body weight resulting from the depression of blood marrow function. Specified pathogen free (SPF) hygienic category colonies of first generation hybrid BDF1 (C57B1 female×DBA/2 male) adult female mice, weighing 23-24 g, were used. The animals were kept in macrolon cages at 22-24° C. (45-55% humidity), with a lighting regimen of 12/12 h light/dark. […] The animals used in these studies were cared for according to the “Guiding Principles for the Care and Use of Animals” based upon the Helsinki declaration.
MXT mammary tumor pieces (containing about 10^6 tumor cells) were implanted subcutaneously to develop the tumors. After six days when the tumor-bearing mice were first treated, the sizes of the tumors were in the 0.26-0.30 cm^3 range. All compounds used were dissolved in 0.9% sodium chloride and applied subcutaneously (CC compounds) or intraperitoneally (CP) in 50 μl volume. Tumor volume was determined by using calipers in three dimensions; this technique is well known to one having ordinary skill in the art. Tumor volume was calculated according to the generally accepted formula: V=a^2×b×π/6, where “a” and “b” mean the shortest and longest diameter, respectively, of the measured tumor.
In the first group, animals received no treatment. In the second group, mice were administered 120-mg/kg of CP on day 6 followed by seven consecutive daily treatments with the same dose. In the third group, each treatment with CP was associated with administration of 4.5-mg/kg of CCompound1. In the fourth group, each treatment with CP was associated with administration of 4.5-mg/kg of CCompound3. In the fifth group, each treatment with CP was associated with administration of 2.0-mg/kg of CCompound26. Each group included 7 mice. All data represent the average of 7 determinations (one determination with each mouse in the group).

healthy mice [2] = experiment: Toxicity in healthy mice; assay type: in vivo; details: for well tolerated maximal dose: mice weighing about 25 g
Description: Accordingly, a well tolerated maximal dose for CCompound1 or CCompound3 in mice (weighing about 25 g) is […] which corresponds to a dose of 4.6 mg/kg. Therapeutically effective concentrations of CC compounds in humans will exert significant promoting effects on bone marrow regeneration without causing toxicity in other normal healthy tissues.

[3] = tested on: cyclophosphamide-treated mice; experiment: Blood profile in cyclophosphamide-treated mice; assay type: in vivo, C57B1 mice; details: for effect on blood profile (WBC, PTL): cyclophosphamide-treated mice, CCompound26 at a smaller dose than the two others
Description: Twelve week old female C57B1 mice were used for the experiments. Each drug was administered intraperitoneally once a day for 5 consecutive days. In the second, third, fourth and fifth groups, mice were administered 120 mg/kg of cyclophosphamide (CP). In a third group, mice were also administered 4.5 mg/kg of CCompound1. In a fourth group, mice were also administered 4.5 mg/kg of CCompound3. In a fifth group, mice were also administered 2.0 mg/kg of CCompound26. In the first group, mice received no treatment. Each group included 5 animals. After 3 hours of the last treatments (on day 5), blood samples were collected from the ocular venous plexus of ether-anesthetized mice by retro-orbital venipuncture in heparanized tubes. Complete cell counts (RBC, red blood cell; WBC, white blood cell; PTL, platelet) were determined with a Sysmex F-800 hematology analyzer (To a Medical Electronics Co. LTD, Kobe, Japan). All data shown in Table 2 are the average of 5 independent determinations.

human cancer patients = details: following stem cell transplantation; cited from earlier work
[4] = single 450 μmole (about 4.6 mg/kg) or daily 400 μmole for 5 consecutive days
[5] = i.p. once a day for 5 days, CP 120 mg/kg, CCompound1, 3: 4.5 mg/kg, CCompound26: 2.0 mg/kg, blood 3 hours after last treatment (day 5), 5 animals
[6] = day 6 after tumor transplantation (first treatment day)
[7] = day 8 after tumor transplantation
[8] = day 11 after tumor transplantation
[9] = day 15 after tumor transplantation
[10] = day 18 after tumor transplantation
[11] = day 22 after tumor transplantation

## CC[N+](C)(CC)CCOCc1ccc2sc3ccccc3c(=O)c2c1.[I-] [CCcompound3]
Solubility in water
  solubility in water: soluble in water
Healthy mice [1]
  tissue alterations at high doses: mild parenchymal degeneration in the heart, focal hypostasis and chronic bronchopneumonia
MXT mammary tumor
  effect on body weight: body weight gain
Healthy mice [2]
  well tolerated maximal dose: 450 μmole/animal
Healthy mice [2]; corresponds to 450 μmole/animal
  well tolerated maximal dose: 4.6 mg/kg
Healthy mice [2]; [4]
  change in the composition of various blood constituents: did not cause any significant change
  pathological alterations in the liver, brain, kidney, heart, spleen, intestine, and lung: did not induce significant pathological alterations

## C=CC[N+](CC)(CC)CC/C=C1/c2ccccc2Sc2ccc(C)cc21.[Br-] [CCcompound26, N,N-Diethyl-N-allyl-3-(2-methyl-9H-thioxanthen-9-ylidene)-propane-1-aminium bromide]
Solubility in water
  solubility in water: water-soluble
[3]; 2.0 mg/kg
  effect on cyclophosphamide-induced decrease in white blood cell and platelet counts: partially reversed
[3]
  effect on blood profile (WBC, PTL): least effective
MXT mammary tumor; 2.0 mg/kg, inferred from prevented body weight loss
  toxic effects at the effective dose: does not exert significant toxic effects
MXT mammary tumor
  effect on body weight: prevented body weight loss

## O=P1(N(CCCl)CCCl)NCCCO1 (centres unmarked) [CP, cyclophosphamide]
[3]
  effect on blood profile (WBC, PTL): decreases both WBC and PTL numbers
[3]; [5]
  PTL: 404 ± 55 ×10^3/μl
  RBC: 8.1 ± 0.9 ×10^6/μl
  WBC: 3.2 ± 0.7 ×10^6/μl
MXT mammary tumor; MXT tumor model
  effect on tumor weight: effectively decreased tumor weight
MXT mammary tumor
  effect on body weight: lost significant amounts of weight
MXT mammary tumor; [6]
  Total weight: 22.4 grams
  Tumor weight: 0.2 grams
  Body weight: 22.2 grams
MXT mammary tumor; [7]
  Total weight: 21.8 grams
  Tumor weight: 0.2 grams
  Body weight: 21.6 grams
MXT mammary tumor; [8]
  Total weight: 20.2 grams
  Tumor weight: 0.1 grams
  Body weight: 20.1 grams
MXT mammary tumor; [9]
  Total weight: 19.9 grams
  Tumor weight: 0.2 grams
  Body weight: 19.7 grams
MXT mammary tumor; [10]
  Total weight: 18.8 grams
  Tumor weight: 0.1 grams
  Body weight: 18.7 grams
MXT mammary tumor; [11]
  Total weight: 18.1 grams
  Tumor weight: 0.1 grams
  Body weight: 18.0 grams

B1: granulocyte-colony stimulating factor (protein, UniProt P09919 31-207, looked up)
Granulocyte …: TPLGPASSLPQSFLLKCLEQVRKIQGDGAALQEKLVSECATYKLCHPEELVLLGHSLGIPWAPLSSCPSQALQLAGCLSQLHSGLFLYQGLLQALEGISPELGPTLDTLQLDVADFATTIWQQMEELGMAPALQPTQGAMPAFASAFQRRAGGVLVASHLQSFLEVSYRVLRHLAQP
notes: cytokine that can reduce the duration and severity of cyclophosphamide-induced neutropenia
Human cancer patients
  time to recover the platelet count to about 100,000 per 1 μl: about 14 days
  time to recover the white blood cell count to 2,500 per 1 μl (mm^3): about 10 days

— patent US7781423B2, “Compounds to promote regeneration of bone marrow” (priority 2007, dated 2010)
